Reference: ChEMBL document CHEMBL4219185, “DNA sequence-specific ligands. XVII. Synthesis, spectral properties, virological and biochemical studies of fluorescent dimeric bisbenzimidazoles DBA(n)” (Bioorg Med Chem, 2018)
Calls of active or inactive are those of the source. The calls are words filed in the database; no cut-off is given here.

Assays:
HCT-116 = assay: Cytotoxicity against human HCT116 cells assessed as reduction in cell viability by MTT assay; type: cell-based
[1] = Cytotoxicity against human […] cells assessed as reduction in cell viability by MTT assay; type: cell-based
MCF-10A = assay: Cytotoxicity against human MCF10A cells assessed as reduction in cell viability by MTT assay; type: cell-based
MCF7 = assay: Cytotoxicity against human MCF7 cells assessed as reduction in cell viability by MTT assay; type: cell-based
Human alphaherpesvirus 1 [2] = assay: Antiviral activity against Herpes simplex virus-1 strain F infected in African green monkey Vero cells assessed as late protein gb level at 50 ug/ml after 48 hrs by immunostaining based luminescent microscopic method (reference value: 95.6%); type: functional
DNA [3] = assay: Binding affinity to Escherichia coli supercoiled pHOT1 DNA assessed as inhibition of topoisomerase-1-mediated relaxation of supercoiled DNA at 2.5 to 20 uM after 30 mins by agarose gel electrophoresis method; type: nucleic-acid assay
Human alphaherpesvirus 1 [4] = assay: Antiviral activity against Herpes simplex virus-1 infected in cells; type: functional, organism-based
[5] = Drug uptake in human U251 cell nucleus treated at 10 to 20 uM after 20 to 40 hrs by fluorescent microscopic method; type: ADME, subcellular; conditions: u-251, 20 µM
Calf thymus DNA [6] = assay: Binding affinity to calf thymus DNA assessed as hypochromic shift at 2.38 x 10^-6M by absorption spectral analysis; type: nucleic-acid assay; conditions: Bos taurus
Calf thymus DNA [7] = assay: Binding affinity to calf thymus DNA groove using DNA cholesteric liquid crystal dispersions assessed as positive band appearance at 0.47 to 4.73 uM by CD spectral analysis; type: nucleic-acid assay; conditions: Bos taurus
Calf thymus DNA [8] = assay: Binding affinity to calf thymus DNA assessed as bathochromic shift at 2.38 x 10^-6M by absorption spectral analysis; type: nucleic-acid assay; conditions: Bos taurus
Calf thymus DNA [9] = assay: Binding affinity to calf thymus DNA at 0.95 uM by fluorescence spectral analysis; type: nucleic-acid assay; conditions: Bos taurus
Calf thymus DNA [10] = assay: Binding affinity to calf thymus DNA assessed as bathochromic shift at 4.4 x 10^-6M by absorption spectral analysis; type: nucleic-acid assay; conditions: Bos taurus
Calf thymus DNA [11] = assay: Binding affinity to calf thymus DNA assessed as hypochromic shift at 4.4 x 10^-6M by absorption spectral analysis; type: nucleic-acid assay; conditions: Bos taurus
Calf thymus DNA [12] = assay: Binding affinity to calf thymus DNA groove using DNA cholesteric liquid crystal dispersions assessed as positive band appearance at 1.1 to 5.45 uM by CD spectral analysis; type: nucleic-acid assay; conditions: Bos taurus
Calf thymus DNA [13] = assay: Binding affinity to calf thymus DNA at 1 uM by fluorescence spectral analysis; type: nucleic-acid assay; conditions: Bos taurus
Cytomegalovirus = assay: Antiviral activity against CMV infected in cells; type: functional, organism-based
[14] = target: Human immunodeficiency virus type 1 integrase (Human immunodeficiency virus 1, UniProt Q7ZJM1); assay: Inhibition of HIV1 integrase
DNA [15] = assay: Binding affinity to Escherichia coli supercoiled pHOT1 DNA assessed as inhibition of topoisomerase-1-mediated relaxation of supercoiled DNA at 10 uM after 30 mins by agarose gel electrophoresis method; type: nucleic-acid assay

Chain of Human immunodeficiency virus type 1 integrase (Q7ZJM1 whole entry): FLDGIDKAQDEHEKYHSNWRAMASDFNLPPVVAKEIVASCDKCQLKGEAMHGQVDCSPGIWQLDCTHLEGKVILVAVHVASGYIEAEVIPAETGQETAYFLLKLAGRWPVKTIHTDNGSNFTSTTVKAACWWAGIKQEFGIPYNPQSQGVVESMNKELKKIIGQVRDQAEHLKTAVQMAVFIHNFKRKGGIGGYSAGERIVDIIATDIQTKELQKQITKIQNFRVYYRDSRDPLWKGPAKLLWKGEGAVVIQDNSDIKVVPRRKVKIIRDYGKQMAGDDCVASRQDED

inhibition (DNA [3])	Structure (SMILES)	IC50 (HCT-116) [µM]	IC50 [1] [µM]	IC50 (MCF-10A) [µM]	IC50 (MCF7) [µM]	also measured
	CN1CCN(c2ccc3nc(-c4ccc5nc(CNC(=O)CCCCCCCCC(=O)NCc6nc7ccc(-c8nc9ccc(N%10CCN(C)CC%10)cc9[nH]8)cc7[nH]6)[nH]c5c4)[nH]c3c2)CC1	20 to 90	20 to 90	20 to 90	20 to 90	
	Nc1nc2c(ncn2COCCO)c(=O)[nH]1 [ACYCLOVIR]					Activity (Human alphaherpesvirus 1 [2]): 0.1%
Active	CN1CCN(c2ccc3nc(-c4ccc5nc(CNC(=O)CCCCCCCC(=O)NCc6nc7ccc(-c8nc9ccc(N%10CCN(C)CC%10)cc9[nH]8)cc7[nH]6)[nH]c5c4)[nH]c3c2)CC1	20 to 90	20 to 90	20 to 90	20 to 90	
Active	CN(C)CCCNC(=O)c1ccc2nc(-c3ccc4nc(CNC(=O)CC(=O)NCc5nc6ccc(-c7nc8ccc(C(=O)NCCCN(C)C)cc8[nH]7)cc6[nH]5)[nH]c4c3)[nH]c2c1	> 240	> 240	> 240	> 240	Activity (Human alphaherpesvirus 1 [4]): Active
Active	CN1CCN(c2ccc3nc(-c4ccc5nc(CNC(=O)CC(=O)NCc6nc7ccc(-c8nc9ccc(N%10CCN(C)CC%10)cc9[nH]8)cc7[nH]6)[nH]c5c4)[nH]c3c2)CC1	20 to 90	20 to 90	20 to 90	20 to 90	
	CN1CCN(c2ccc3nc(-c4ccc5nc(CNC(=O)CCCCCCCCCCC(=O)NCc6nc7ccc(-c8nc9ccc(N%10CCN(C)CC%10)cc9[nH]8)cc7[nH]6)[nH]c5c4)[nH]c3c2)CC1	20 to 90	20 to 90	20 to 90	20 to 90	
	CN1CCN(c2ccc3nc(-c4ccc5nc(CNC(=O)CCCCC(=O)NCc6nc7ccc(-c8nc9ccc(N%10CCN(C)CC%10)cc9[nH]8)cc7[nH]6)[nH]c5c4)[nH]c3c2)CC1	20 to 90	20 to 90	20 to 90	20 to 90	
Active	CN(C)CCCNC(=O)c1ccc2nc(-c3ccc4nc(CNC(=O)CCCCCCCCCC(=O)NCc5nc6ccc(-c7nc8ccc(C(=O)NCCCN(C)C)cc8[nH]7)cc6[nH]5)[nH]c4c3)[nH]c2c1	> 240	> 240	> 240	> 240	Drug uptake [5]: Active
	CN1CCN(c2ccc3nc(-c4ccc5nc(CNC(=O)CCCCCCCCCC(=O)NCc6nc7ccc(-c8nc9ccc(N%10CCN(C)CC%10)cc9[nH]8)cc7[nH]6)[nH]c5c4)[nH]c3c2)CC1	20 to 90	20 to 90	20 to 90	20 to 90	
Active	CN(C)CCCNC(=O)c1ccc2nc(-c3ccc4nc(CNC(=O)CCCCCCCC(=O)NCc5nc6ccc(-c7nc8ccc(C(=O)NCCCN(C)C)cc8[nH]7)cc6[nH]5)[nH]c4c3)[nH]c2c1	> 240	> 240	> 240	> 240	Activity (Calf thymus DNA [6]): Active; Activity (Calf thymus DNA [7]): Active; Activity (Calf thymus DNA [8]): Active; Activity (Human alphaherpesvirus 1 [4]): Active; Activity (Human alphaherpesvirus 1 [2]): 10%; Activity (Calf thymus DNA [9]): Active; Drug uptake [5]: Active
Active	CN(C)CCCNC(=O)c1ccc2nc(-c3ccc4nc(CNC(=O)CCCCCC(=O)NCc5nc6ccc(-c7nc8ccc(C(=O)NCCCN(C)C)cc8[nH]7)cc6[nH]5)[nH]c4c3)[nH]c2c1	> 240	> 240	> 240	> 240	Activity (Calf thymus DNA [10]): Active; Activity (Calf thymus DNA [11]): Active; Activity (Calf thymus DNA [12]): Active; Drug uptake [5]: Active; Activity (Calf thymus DNA [13]): Active
	CN1CCN(c2ccc3nc(-c4ccc5nc(CNC(=O)CCCCCCCCCCCC(=O)NCc6nc7ccc(-c8nc9ccc(N%10CCN(C)CC%10)cc9[nH]8)cc7[nH]6)[nH]c5c4)[nH]c3c2)CC1	20 to 90	20 to 90	20 to 90	20 to 90	
	CN1CCN(c2ccc3nc(-c4ccc5nc(CNC(=O)CCCCCCCCCCCCC(=O)NCc6nc7ccc(-c8nc9ccc(N%10CCN(C)CC%10)cc9[nH]8)cc7[nH]6)[nH]c5c4)[nH]c3c2)CC1	20 to 90	20 to 90	20 to 90	20 to 90	
	CN1CCN(c2ccc3nc(-c4ccc5nc(CNC(=O)CCC(=O)NCc6nc7ccc(-c8nc9ccc(N%10CCN(C)CC%10)cc9[nH]8)cc7[nH]6)[nH]c5c4)[nH]c3c2)CC1	20 to 90	20 to 90	20 to 90	20 to 90	
	CN1CCN(c2ccc3nc(-c4ccc5nc(CNC(=O)CCCCCCC(=O)NCc6nc7ccc(-c8nc9ccc(N%10CCN(C)CC%10)cc9[nH]8)cc7[nH]6)[nH]c5c4)[nH]c3c2)CC1	20 to 90	20 to 90	20 to 90	20 to 90	
Active	CN(C)CCCNC(=O)c1ccc2nc(-c3ccc4nc(CNC(=O)CCCCCCCCCCCC(=O)NCc5nc6ccc(-c7nc8ccc(C(=O)NCCCN(C)C)cc8[nH]7)cc6[nH]5)[nH]c4c3)[nH]c2c1	> 240	> 240	> 240	> 240	Activity (Cytomegalovirus): Active; Activity (Human alphaherpesvirus 1 [4]): Active; IC50 [14]: 0.06 µM; Drug uptake [5]: Active
Active	CN(C)CCCNC(=O)c1ccc2nc(-c3ccc4nc(CNC(=O)CCCC(=O)NCc5nc6ccc(-c7nc8ccc(C(=O)NCCCN(C)C)cc8[nH]7)cc6[nH]5)[nH]c4c3)[nH]c2c1	> 240	> 240	> 240	> 240	Drug uptake [5]: Active
	CN1CCN(c2ccc3nc(-c4ccc5nc(CNC(=O)CCCC(=O)NCc6nc7ccc(-c8nc9ccc(N%10CCN(C)CC%10)cc9[nH]8)cc7[nH]6)[nH]c5c4)[nH]c3c2)CC1	20 to 90	20 to 90	20 to 90	20 to 90	inhibition (DNA [15]): Active
Active	CN1CCN(c2ccc3nc(-c4ccc5nc(CNC(=O)CCCCCC(=O)NCc6nc7ccc(-c8nc9ccc(N%10CCN(C)CC%10)cc9[nH]8)cc7[nH]6)[nH]c5c4)[nH]c3c2)CC1	20 to 90	20 to 90	20 to 90	20 to 90	
